Measured values reported in article PMC3899110 (Methods (San Diego, Calif.), 2013).
Like-named read-outs stand apart in the source and are kept apart here.

Tests used:
LYP [1] = molecular target: T1, LYP (Homo sapiens, UniProt Q9Y2R2); test: LYP inhibition, follow-up of the 1536-well HTS, pCAP or OMFP substrate; format: biochemical
T1 sequence (Q9Y2R2 24-289 limits assumed): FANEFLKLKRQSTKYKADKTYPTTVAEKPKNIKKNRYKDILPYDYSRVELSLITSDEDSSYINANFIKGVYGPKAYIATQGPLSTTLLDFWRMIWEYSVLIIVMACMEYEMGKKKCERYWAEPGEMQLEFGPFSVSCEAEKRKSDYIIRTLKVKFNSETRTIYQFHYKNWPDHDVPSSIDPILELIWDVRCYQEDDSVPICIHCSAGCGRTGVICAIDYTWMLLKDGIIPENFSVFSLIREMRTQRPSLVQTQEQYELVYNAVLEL

LYP [2] = molecular target: T1, LYP; settings: Spectrum collection screen, cited from earlier work
LYP [3] = molecular target: T1, LYP; format: biochemical; settings: for kcat: pH 6.5

IC50 (LYP [1]; read-out: IC50, OMFP substrate, assayed using the OMFP substrate) [nM]	IC50 (LYP [1]; read-out: IC50, pCAP substrate, assayed using the pCAP substrate) [nM]	Molecule	inhibition of LYP activity, DiFMUP-based screen (LYP [2]; DiFMUP as substrate) [%]	inhibition of LYP activity, peptide-based screen (LYP [2]; peptide 2 as substrate)	Km (LYP [3]) [µM]	kcat/Km (LYP [3])	kcat (LYP [3]) [s⁻¹]
1500	530	O=C(O)COc1ccc(/C=N/NC(=O)c2ccc(-c3csc(Nc4ccc(Cl)cc4)n3)cc2)cc1 [CID9595032]					
		Cc1ccc(C(=O)Nc2ccc(S(=O)(=O)O)c3cc(S(=O)(=O)O)cc(S(=O)(=O)O)c23)cc1NC(=O)c1cccc(NC(=O)Nc2cccc(C(=O)Nc3cc(C(=O)Nc4ccc(S(=O)(=O)O)c5cc(S(=O)(=O)O)cc(S(=O)(=O)O)c45)ccc3C)c2)c1 [suramin]	~40	nearly all			
		Ac-ARLIEDNE-pCAP-TAREG-NH2 [Peptide 2]			200 ± 60	27,000,000 M^−1s^−1	5400 ± 1000
		Ac-ARLIEDNE-pY-TAREG-NH2 [Peptide 2a]			130 ± 20	52,000,000 M^−1s^−1	6700 ± 400
